Assay results published in patent US11247987B2, “Inhibiting ubiquitin specific peptidase 30” (FORMA Therapeutics, Inc., priority 2017, dated 2022).

target: T1, human recombinant USP30 (Homo sapiens, UniProt Q70CQ3); assay: Ubiquitin-Rhodamine 110 Assay for USP30 Activity (USP30 Inhibitor Biochemical Assay); details: 0.2 nM USP30, 25 nM Ub-Rh110, 30 min preincubation, 30 min at room temperature; read-out: USP30 potency range (USP30 biochemical IC50 assay, IC50 ranges)
T1 construct: purchased Boston Biochem E-582
T1 sequence (Q70CQ3 1-517): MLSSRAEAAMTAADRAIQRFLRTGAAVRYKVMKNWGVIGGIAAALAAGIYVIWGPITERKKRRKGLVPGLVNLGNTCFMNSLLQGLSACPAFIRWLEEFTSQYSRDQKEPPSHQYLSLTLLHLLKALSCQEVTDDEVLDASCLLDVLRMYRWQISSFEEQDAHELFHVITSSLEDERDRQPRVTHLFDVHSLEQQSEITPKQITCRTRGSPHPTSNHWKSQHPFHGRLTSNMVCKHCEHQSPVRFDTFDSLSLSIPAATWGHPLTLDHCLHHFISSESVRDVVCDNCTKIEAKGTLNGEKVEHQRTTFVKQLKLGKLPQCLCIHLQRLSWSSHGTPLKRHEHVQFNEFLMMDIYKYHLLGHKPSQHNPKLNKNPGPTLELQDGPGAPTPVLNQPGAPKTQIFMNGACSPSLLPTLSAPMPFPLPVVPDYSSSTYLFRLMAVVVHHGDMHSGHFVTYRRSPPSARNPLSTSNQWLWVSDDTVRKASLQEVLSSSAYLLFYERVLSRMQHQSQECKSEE
Procedure, shortened: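 Human recombinant USP30 (0.2 nM final) was preincubated 30 min with compound (25 μM to 1.3 nM, 10-point) in Tris pH 8.0, 1 mM GSH, BGG and Triton X-100. Ub-Rh110 was then added for 30 min at room temperature and stopped with citric acid. Fluorescence at 485/535 nm gave % inhibition and a 4-parameter IC50 fit.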

Compound	IC50
N#CN[C@@H]1C[C@H]1C(=O)Nc1ncc(C2CCCCC2)s1 (relative stereo) [Compound 11-1, trans-2-(cyanoamino)-N-(5-cyclohexyl-1,3-thiazol-2-yl)cyclopropane-1-carboxamide]	1000 to 10000 nM
N#CN[C@H]1C[C@](F)(C(=O)Nc2cc(-c3ccc(C(F)(F)F)cc3)n[nH]2)C1 [Compound 1-56, (1s,3s)-3-(cyanoamino)-1-fluoro-N-{3-[4-(trifluoro-methyl)phenyl]-1H-pyrazol-5-yl}cyclobutane-1-carboxamide]	100 to 1000 nM
N#CN[C@H]1C[C@H](C(=O)Nc2nc(C(F)(F)F)c(C3CCCCC3)s2)C1 [Compound 1-31, (1r,3r)-3-(cyanoamino)-N-[5-cyclohexyl-4-(trifluoromethyl)-1,3-thiazol-2-yl]cyclobutane-1-carboxamide]	< 100 nM
CC(C)(C)c1sc(N2CC[C@]3(C[C@H](NC#N)C3)C2=O)nc1Cl (single isomer, unassigned) [Compound 7-1, ([(2r,4s)-6-(5-tert-butyl-4-chloro-1,3-thiazol-2-yl)-5-oxo-6-azaspiro[3.4]octan-2-yl]amino)carbonitrile]	< 100 nM
N#CN[C@H]1C[C@H](C(=O)Nc2sc(C3CCCCC3)nc2F)C1 [Compound 1-17, (1r,3r)-3-(cyanoamino)-N-(2-cyclohexyl-4-fluoro-1,3-thiazol-5-yl)cyclobutane-1-carboxamide]	100 to 1000 nM
N#CN[C@H]1CC[C@H](C(=O)Nc2ccn(-c3ccccc3)n2)C1 [Compound 12-2, (1S,3S)-3-(cyanoamino)-N-(1-phenyl-1H-pyrazol-3-yl)cyclopentane-1-carboxamide]	10000 to 25000 nM
N#CN[C@H]1C[C@@H](C(=O)Nc2cnn(-c3ccccc3)c2)C1 [Compound 5-1, cis-3-(cyanoamino)-N-(1-phenyl-1H-pyrazol-4-yl)cyclobutane-1-carboxamide]	1000 to 10000 nM
Cn1cc(-c2ccc(-c3cc(C(=O)N[C@H]4C[C@@H](NC#N)C4)on3)cc2)cn1 [Compound 3-3, 3-[4-(1-methyl-1H-pyrazol-4-yl)phenyl]-N-[(1s,3s)-3-(cyanoamino)cyclobutyl]-1,2-oxazole-5-carboxamide]	100 to 1000 nM
N#CN[C@H]1C[C@H]1C(=O)Nc1ncc(C2CCCCC2)s1 (relative stereo) [Compound 11-2, cis-2-(cyanoamino)-N-(5-cyclohexyl-1,3-thiazol-2-yl)cyclopropane-1-carboxamide]	1000 to 10000 nM
N#CN[C@H]1C[C@H](C(=O)Nc2ncc([C@H]3CCCC[C@@H]3C(F)(F)F)s2)C1 [Compound 1-34, (1r,3r)-3-(cyanoamino)-N-{5-[(1S,2S)-2-(trifluoromethyl)cyclo-hexyl]-1,3-thiazol-2-yl}cyclobutane-1-carboxamide]	100 to 1000 nM
N#CN[C@H]1C[C@H](C(=O)Nc2sc(C3CCCCC3)nc2Cl)C1 [Compound 1-14, (1r,3r)-N-(4-chloro-2-cyclohexyl-1,3-thiazol-5-yl)-3-(cyanoamino)cyclo-butane-1-carboxamide]	100 to 1000 nM
N#CN[C@H]1C[C@H](NC(=O)c2ncc(-c3ccccc3)s2)C1 [Compound 3-1, 5-phenyl-N-[(trans)-3-(cyanoamino)cyclobutyl]-1,3-thiazole-2-carboxamide]	1000 to 10000 nM
CN(c1cc(-c2cccc(Cl)c2)on1)C(=O)[C@H]1C[C@H](NC#N)C1 [Compound 1-52, (1r,3r)-N-[5-(3-chlorophenyl)-1,2-oxazol-3-yl]-3-(cyanoamino)-N-methylcyclobutane-1-carboxamide]	100 to 1000 nM
N#CN[C@H]1C[C@H](C(=O)Nc2ncc(-c3cccc(C#N)c3)s2)C1 [Compound 1-40, (1r,3r)-3-(cyanoamino)-N-[5-(3-cyanophenyl)-1,3-thiazol-2-yl]cyclobutane-1-carboxamide]	100 to 1000 nM
CC(C)(C)c1sc(NC(=O)[C@]2(F)C[C@@H](NC#N)C2)nc1Cl [Compound 1-59, (1s,3s)-N-(5-tert-butyl-4-chloro-1,3-thiazol-2-yl)-3-(cyanoamino)-1-fluorocyclobutane-1-carboxamide]	100 to 1000 nM
N#CN[C@H]1C[C@H](C(=O)Nc2nc(-c3cnn(C4CC4)c3)c(C3CCCCC3)s2)C1 [Compound 1-26, (1r,3r)-3-(cyanoamino)-N-[5-cyclohexyl-4-(1-cyclopropyl-1H-pyrazol-4-yl)-1,3-thiazol-2-yl]cyclobutane-1-carboxamide]	< 100 nM
N#CN[C@H]1C[C@H](C(=O)Nc2ncc(-c3ccccc3)s2)C1 [Compound 5-8, trans-3-(cyanoamino)-N-(5-phenyl-1,3-thiazol-2-yl)cyclobutane-1-carboxamide]	1000 to 10000 nM
Cn1cc(-c2ccc(-c3cc(C(=O)N4CC[C@]45C[C@@H](NC#N)C5)on3)cc2)cn1 [Compound 3-5, {[(4r,6s)-1-{3-[4-(1-methyl-1H-pyrazol-4-yl)phenyl]-1,2-oxazole-5-carbonyl}-1-azaspiro[3.3]heptan-6-yl]amino} carbonitrile]	100 to 1000 nM
CN(C(=O)c1cc(-c2cccc(C#N)c2)no1)[C@H]1C[C@H](NC#N)C1 [Compound 3-6, 3-(3-cyanophenyl)-N-methyl-N-[(1r,3r)-3-(cyanoamino)cyclobutyl]-1,2-oxazole-5-carboxamide]	1000 to 10000 nM
CN(c1nc(Cl)c(C2CCCCC2)s1)C(=O)[C@]1(F)C[C@H](NC#N)C1 [Compound 1-55, (1r,3r)-N-(4-chloro-5-cyclohexyl-1,3-thiazol-2-yl)-3-(cyanoamino)-1-fluoro-N-methylcyclobutane-1-carboxamide]	< 100 nM
C[C@@H]1CCCC[C@H]1c1cnc(NC(=O)[C@H]2C[C@H](NC#N)C2)s1 [Compound 1-24, (1r,3r)-3-(cyanoamino)-N-{5-[(1R,2R)-2-methylcyclohexyl]-1,3-thiazol-2-yl}cyclobutane-1-carboxamide]	< 100 nM
CN(c1nc(Cl)c(C(C)(C)C)s1)C(=O)[C@H]1C[C@H](NC#N)C1 [Compound 1-50, (1r,3r)-N-(5-tert-butyl-4-chloro-1,3-thiazol-2-yl)-3-(cyanoamino)-N-methylcyclobutane-1-carboxamide]	< 100 nM
N#CN[C@H]1CC[C@H](C(=O)Nc2ccc3c(c2)CCC3)C1 [Compound 12-5, (1S,3S)-3-(cyanoamino)-N-(2,3-dihydro-1H-inden-5-yl)cyclopentane-1-carboxamide]	10000 to 25000 nM
N#CN[C@H]1CC[C@@H](C(=O)Nc2ncc(-c3ccccc3)s2)C1 [Compound 12-1, (1R,3S)-3-(cyanoamino)-N-(5-phenyl-1,3-thiazol-2-yl)cyclopentane-1-carboxamide]	1000 to 10000 nM
CC(C)(C)c1sc(NC(=O)[C@]2(Cl)C[C@@H](NC#N)C2)nc1Cl (single isomer, unassigned) [Compound 9-1, (1s,3s)-N-(5-tert-butyl-4-chloro-1,3-thiazol-2-yl)-1-chloro-3-(cyanoamino)cyclobutane-1-carboxamide]	< 100 nM
N#CN[C@H]1C[C@H](C(=O)Nc2cc(C(F)(F)F)ccn2)C1 [Compound 1-27, (1r,3r)-3-(cyanoamino)-N-[4-(trifluoro-methyl)pyridin-2-yl]cyclobutane-1-carboxamide]	100 to 1000 nM
Cc1nc(C2CCCCC2)sc1NC(=O)[C@H]1C[C@H](NC#N)C1 [Compound 1-7, (1r,3r)-3-(cyanoamino)-N-(2-cyclohexyl-4-methyl-1,3-thiazol-5-yl)cyclobutane-1-carboxamide]	100 to 1000 nM
N#CN[C@@H]1CCC[C@H](C(=O)Nc2ncc(C3CCCCC3)s2)C1 [Compound 10-6, (1S,3R)-3-(cyanoamino)-N-(5-cyclohexyl-1,3-thiazol-2-yl)cyclohexane-1-carboxamide]	1000 to 10000 nM
C[C@H]1CCCC[C@H]1c1cnc(NC(=O)[C@H]2C[C@H](NC#N)C2)s1 [Compound 1-22, (1r,3r)-3-(cyanoamino)-N-{5-[(1R,2S)-2-methylcyclohexyl]-1,3-thiazol-2-yl}cyclobutane-1-carboxamide]	100 to 1000 nM
N#CN[C@H]1C[C@H](C(=O)Nc2ccc(N3CCOCC3)cc2)C1 [Compound 5-14, trans-3-(cyanoamino)-N-[4-(morpholin-4-yl)phenyl]cylobutane-1-carboxamide]	10000 to 25000 nM
